Source: ChEMBL document CHEMBL3227967, “Quantitative structure-activity relationships in 1-aryl-2-(alkylamino)ethanol antimalarials” (J Med Chem, 1979)

System: Plasmodium berghei
Experiment: Antimalarial activity against Plasmodium berghei
Type: functional

Structure (SMILES)	log(1/C)
Cc1ccc(-c2cc(C(O)CC3CCCCN3)c3cc(F)ccc3n2)cc1 (centres undefined)	2.34
CCCCN(CCCC)CC(O)c1cc(-c2ccc(Cl)cc2)nc2cc(F)ccc12 (centres undefined)	3.62
OC(CC1CCCCN1)c1cc(Oc2ccc(Cl)cc2)nc2c(Cl)cc(Cl)cc12 (centres undefined)	4.16
COc1cc(C(F)(F)F)c2nc(C(F)(F)F)cc(C(O)CC3CCCCN3)c2c1 (centres undefined)	3.98
CCCCN(CCCC)CC(O)c1cc(C(C)(C)C)nc2ccc(Cl)cc12 (centres undefined)	2.91
CCCCN(CCCC)CC(O)c1cc(C(=O)c2cc(Cl)cc(Cl)c2)nc2c(C(F)(F)F)cc(Cl)cc12 (centres undefined)	4.82
OC(CC1CCCCN1)c1ccnc2c(Cl)cccc12 (centres undefined)	2.01
CCCN(CCC)CC(O)c1cc2cc(Cl)ccc2c2cc(Cl)ccc12 (centres undefined)	4.06
CCCCN(CCCC)CC(O)c1cccc2cc3ccccc3cc12 (centres undefined)	2.27
OC(CC1CCCCN1)c1cc2c(Cl)cc(Cl)cc2c2ccccc12 (centres undefined)	3.73
CCCCN(CCCC)CC(O)c1cc(Oc2cc(Cl)cc(Cl)c2)cc2c(Cl)cc(Cl)cc12 (centres undefined)	2.9
CCCCN(CCCC)CC(O)c1cc(-c2ccc(Cl)cc2)nc2c(Cl)cc(Cl)cc12 (centres undefined)	4.03
CCCCCN(CCCCC)CC(O)c1cc2ccc(C(F)(F)F)cc2c2ccsc12 (centres undefined)	2.69
CCCCCCN(CCCCCC)CC(O)c1cc2ccc(Br)cc2c2cc(Br)ccc12 (centres undefined)	3.51
CCCCCCN(CCCCCC)CC(O)c1cc2ccccc2c2ccccc12 (centres undefined)	2.4
CCCCN(CCCC)CC(O)c1cc(-c2ccc(Cl)cc2)nc(-c2ccc(Cl)cc2)c1.O=C(O)CCC(=O)O (centres undefined)	3.71
CCCCCCCN(CCCCCCC)CC(O)c1ccc(Cl)c2cc3cccc(Cl)c3cc12 (centres undefined)	3.56
OC(CC1CCCCN1)c1cc(C(F)(F)F)nc2ccc(Cl)cc12 (centres undefined)	2.53
CCCCN(CCCC)CC(O)c1cc(-c2ccc(Cl)cc2)nc2c(C)cc(C)cc12 (centres undefined)	3.9
CCCCN(CCCC)CC(O)c1cc(-c2cccs2)nc2cccc(Br)c12 (centres undefined)	3.06
CCCCCCCN(CCCCCCC)CC(O)c1cc2cccnc2c2ccccc12 (centres undefined)	2.9
CCCCN(CCCC)CC(O)c1cc(C(F)(F)F)nc2c(C(F)(F)F)cccc12 (centres undefined)	3.6
CN1CCN(CC(O)c2cc(-c3ccccc3)nc3c(Cl)cc(Cl)cc23)CC1 (centres undefined)	2.48
OC(CC1CCCNC1)c1cc2ccc(C(F)(F)F)cc2c2cc(C(F)(F)F)ccc12 (centres undefined)	3.89
CCCCCCCN(CCCCCCC)CC(O)c1cc2c(Cl)cc(Cl)cc2c2cc(C)sc12 (centres undefined)	3.48

Structure (SMILES)	log(1/C)
CCCCN(CCCC)CC(O)c1cc(C(=O)c2cccc(Cl)c2Cl)nc2c(C(F)(F)F)cc(Cl)cc12 (centres undefined)	4.52
OC(CC1CCCCN1)c1cc2ccc(Br)cc2c2cc(C(F)(F)F)ccc12 (centres undefined)	3.7
CCCCN(CCCC)CC(O)c1cc(C(=O)c2ccc(Cl)cc2)cc2c(Cl)cc(Cl)cc12 (centres undefined)	2.66
CCCC(CCC)N(CC(O)c1cc(-c2ccc(C(F)(F)F)cc2)nc(-c2ccc(C(F)(F)F)cc2)c1)C(CCC)CCC (centres undefined)	4.15
CCCCN(CCCC)CC(O)c1cc2cc(Cl)c(Cl)cc2c2c(Cl)c(Cl)ccc12 (centres undefined)	4.18
CCCCN(CCCC)CC(O)c1cc2ccc(I)cc2c2cc(C(F)(F)F)ccc12 (centres undefined)	3.72
CCCCN(CCCC)CC(O)c1cc(-c2ccc(Cl)cc2)nc2c(C(F)(F)F)cccc12 (centres undefined)	3.69
CCCCCCCN(CCCCCCC)CCCC(O)c1cc2ccc(C(F)(F)F)cc2c2cc(C(F)(F)F)ccc12 (centres undefined)	3.72
OC(CC1CCCCN1)c1cc(-c2ccccc2)nc2c(Cl)cc(Cl)cc12 (centres undefined)	3.9
CCCCCCCN(CCCCCCC)CC(O)c1c2ccccc2cc2ccccc12 (centres undefined)	3.07
CCCCN(CCCC)CC(O)c1cc(-c2ccc(Cl)cc2)cc2cc(Cl)ccc12 (centres undefined)	4.24
OC(CC1CCCCN1)c1cc2ccc(Cl)c(Cl)c2c2cc(C(F)(F)F)ccc12 (centres undefined)	4.4
CCCCN(CCCC)CC(O)c1cccc2c1ccc1cc(Cl)c(Cl)cc12 (centres undefined)	2.96
CCCCN(CCCC)CC(O)c1cccc2ccc3cccc(Cl)c3c12 (centres undefined)	2.3
OC(CC1CCCCN1)c1cc2cccc(C(F)(F)F)c2c2ccccc12 (centres undefined)	3.62
CCCCNCCC(O)c1c2ccccc2c(Cl)c2cc(C(F)(F)F)ccc12 (centres undefined)	3
CCCCN(CCCC)CC(O)c1c2cccc(Cl)c2cc2c(Cl)cccc12 (centres undefined)	2.76
CCCCN(CCCC)CC(O)c1cc2cc(Br)ccc2c2cc(SC)ccc12 (centres undefined)	3.04
COc1ccc(-c2cc(C(O)CC3CCCCN3)c3ccccc3n2)cc1 (centres undefined)	2.53
CCCCCCCN(CCCCCCC)CC(O)c1cc2ccc(C(F)(F)F)cc2c2sccc12 (centres undefined)	3.36
CC(C)(C)NCCC(O)c1cc2ccc(C(F)(F)F)cc2c2cc(C(F)(F)F)ccc12 (centres undefined)	4.73
CC(C)(C)NCC(O)c1cc2ccc(Br)cc2c2cc(Br)ccc12 (centres undefined)	3.61
OC(CNC1CC1)c1cc(-c2ccc(Cl)c(Cl)c2)nc2c(Cl)cc(Cl)cc12 (centres undefined)	3.6
CCCCCCCCCN(CCCCCCCCC)CC(O)c1c2ccccc2cc2ccccc12 (centres undefined)	3.24
OC(CC1CCCCN1)c1cc(-c2ccc(C(F)(F)F)cc2)nc(-c2ccc(C(F)(F)F)cc2)c1 (centres undefined)	4.19

Structure (SMILES)	log(1/C)
CCCCN(CCCC)CC(O)c1cccc2c1cc(Cl)c1ccccc12 (centres undefined)	2.26
CCCN(CCC)CC(O)c1cc2cc(C(F)(F)F)cc(C(F)(F)F)c2c2cc(Cl)c(Cl)cc12 (centres undefined)	5.18
CCCCN(CCCC)CC(O)c1cc(-c2ccc(C(F)(F)F)cc2)nc2c(Cl)cc(Cl)cc12 (centres undefined)	4.04
Cc1ccc2nc(Nc3ccc(Cl)cc3)cc(C(O)CC3CCCCN3)c2c1 (centres undefined)	2.87
CCCCN(CCCC)CC(O)c1cc(-c2ccc(Cl)cc2)nc(-c2ccc(Cl)c(Cl)c2)c1 (centres undefined)	3
CCCCN(CCCC)CCC(O)c1cc2c(Cl)cc(Cl)cc2c2cc(C(F)(F)F)ccc12 (centres undefined) [HALOFANTRINE]	4.47
CCCCN(CCCC)CC(O)c1cc(-c2ccc(Cl)c(Cl)c2)nc2c(Cl)cc(Cl)cc12 (centres undefined)	4.21
CCCCCCCN(CCCCCCC)CC(O)c1cc2cc(Cl)ccc2c2cc(C(F)(F)F)ccc12 (centres undefined)	3.68
CCCCN(CCCC)CC(O)c1cc(C(=O)c2cccc(C(F)(F)F)c2)nc2c(C(F)(F)F)cc(Cl)cc12 (centres undefined)	4.52
CCCCCCCN(CCCCCCC)CC(O)c1ccc2cc3ccccc3cc2c1 (centres undefined)	2.62
OC(CC1CCCCN1)c1c2c(nc3c(Cl)cc(Cl)cc13)-c1cccc(Cl)c1CC2 (centres undefined)	3.6
CCCCCCCN(CCCCCCC)CC(O)c1c2cccc(Cl)c2cc2c(Cl)cccc12 (centres undefined)	3.92
OC(CCNC1CCCCC1)c1cc2ccc(C(F)(F)F)cc2c2cc(C(F)(F)F)ccc12 (centres undefined)	4.53
OC(CN1CCOCC1)c1cc(-c2ccccc2)nc2c(Cl)cc(Cl)cc12 (centres undefined)	2.23
CCCCN(CCCC)CC(O)c1cc(-c2ccc(Cl)cc2)nc2cc3c(cc12)OCO3 (centres undefined)	2.99
OC(CNC12CC3CC(CC(C3)C1)C2)c1cc(-c2ccccc2)nc2c(Cl)cc(Cl)cc12 (centres undefined)	2.36
CCCCN(CCCC)CC(O)c1cc(C(F)(F)c2ccccc2)nc2c(Cl)cc(Cl)cc12 (centres undefined)	2.61
CCCCCCCCN(CCCCCCCC)CC(O)c1cc2ccccc2c2ccccc12 (centres undefined)	2.54
CCCCN(CCCC)CC(O)c1c(Br)c2ccccc2c2ccccc12 (centres undefined)	2.51
OC(CC1CCCCN1)C1CC(c2ccccc2)=Nc2c(Cl)cc(Cl)cc21 (centres undefined)	2.71
OC(CC1CCCCN1)c1cc2cc(Br)ccc2c2cc(C(F)(F)F)ccc12 (centres undefined)	3.96
OC(CC1CCCCN1)c1cc(-c2ccccc2)nc2c(Cl)cccc12 (centres undefined)	2.69
OC(CC1CCCCN1)c1cc2cccc(C(F)(F)F)c2c2ccc(Cl)cc12 (centres undefined)	3.66
CCCCN(CCCC)CC(O)c1c2ccccc2cc2cc(Cl)c(Cl)cc12 (centres undefined)	2.89
CCCCCCN(CCCCCC)CC(O)c1cccc2c1cc(Cl)c1ccccc12 (centres undefined)	2.39

Structure (SMILES)	log(1/C)
CCCCN(CCCC)CC(O)c1cc(-c2ccccc2)nc2ccc(OC)cc12 (centres undefined)	2.89
CCCN(CCC)CC(O)c1cc2ccc(C(F)(F)F)cc2c2cc(C(F)(F)F)ccc12 (centres undefined)	3.92
CCCCN(CCCC)CC(O)c1cc(/C=C/c2ccc(C(F)(F)F)cc2)nc(C(=O)c2ccc(C(F)(F)F)cc2)c1 (centres undefined)	3.91
CS(=O)(=O)c1ccc2cc(C(O)CC3CCCCN3)c3ccc(C(F)(F)F)cc3c2c1 (centres undefined)	3.32
OC(CC1CCCCN1)c1cc2cc(C(F)(F)F)ccc2c2cc(C(F)(F)F)ccc12 (centres undefined)	3.85
CCCCCCCNCC(O)c1cc(-c2ccc(C(F)(F)F)cc2)nc(-c2ccc(C(F)(F)F)cc2)c1 (centres undefined)	3.67
OC(CC1CCCCN1)c1cc(-c2ccccc2)nc2cc(Cl)ccc12 (centres undefined)	2.72
CCCCN(CCCC)CC(O)c1cc(-c2ccc(OC)cc2)nc2cc(Cl)c(OC)cc12 (centres undefined)	3.32
CCCCN(CCCC)CC(O)c1cc(-c2ccc(Cl)cc2)nc2ccc(F)cc12 (centres undefined)	3.11
CCCCCCCN(CCCCCCC)CC(O)c1cc(-c2ccc(Cl)cc2)cc2cc(Cl)c(OC)cc12 (centres undefined)	3.31
CCCCNCCC(O)c1cc2ccc(C(F)(F)F)cc2c2cc(C(F)(F)F)ccc12 (centres undefined)	4.73
CCCCN(CCCC)CC(O)c1cc(-c2ccc(Cl)cc2)nc2cc(C(F)(F)F)ccc12 (centres undefined)	4.14
Cc1cc(C)c2nc(C(F)(F)F)cc(C(O)CC3CCCCN3)c2c1 (centres undefined)	2.93
CCCCNCC(O)c1cc(C(F)(F)F)nc2c(C(F)(F)F)cccc12 (centres undefined)	3.65
CC(C)(C)NCCC(O)c1cc(C(F)(F)F)nc2c(C(F)(F)F)cccc12 (centres undefined)	3.47
CCCCCN(CCCCC)CC(O)c1ccc(Br)c2ccccc12 (centres undefined)	2.16
CCCN(CCC)CC(O)c1cc(C(F)(F)F)nc2c(C(F)(F)F)cccc12 (centres undefined)	2.88
OC(CC1CCCCN1)c1cc2c(Cl)cc(Cl)cc2c2ccc(Cl)cc12 (centres undefined)	3.79
CCCCNCC(O)c1cc(-c2ccccc2C(F)(F)F)nc(C(F)(F)F)c1 (centres undefined)	3.78
CCCCCCCCN(CCCCCCCC)CC(O)c1ccnc2ccccc12 (centres undefined)	2.44
CCCCCCCN(CCCCCCC)CC(O)c1cc2ccccc2c2cc(Cl)ccc12 (centres undefined)	2.59
OC(CC1CCCCN1)c1cc2cc(Cl)ccc2c2cc(Cl)ccc12 (centres undefined)	4.12
CCCCN(CCCC)CC(O)c1cc(-c2ccc(C(F)(F)F)cc2)nc(C(F)(F)F)c1 (centres undefined)	4.13
OC(CC1CCCCN1)c1cc(-c2ccc(Cl)cc2)nc2c(Cl)cc(Cl)cc12 (centres undefined)	3.97
